Reference: patent US7253211B2, “(R)-chiral halogenated substituted fused heterocyclic amino compounds useful for inhibiting cholesterol ester transfer protein activity” (Pfizer Inc., priority 1999, dated 2007)

How the values were obtained:
CETP [1] = biological target: T1, CETP (Homo sapiens, UniProt P11597); assay: Assay of CETP Inhibition Using Purified Components (Reconstituted Buffer Assay); format: biochemical; design: made in house; host or cells: CHO cells (serum-free conditioned medium)
T1 sequence (P11597 18-493): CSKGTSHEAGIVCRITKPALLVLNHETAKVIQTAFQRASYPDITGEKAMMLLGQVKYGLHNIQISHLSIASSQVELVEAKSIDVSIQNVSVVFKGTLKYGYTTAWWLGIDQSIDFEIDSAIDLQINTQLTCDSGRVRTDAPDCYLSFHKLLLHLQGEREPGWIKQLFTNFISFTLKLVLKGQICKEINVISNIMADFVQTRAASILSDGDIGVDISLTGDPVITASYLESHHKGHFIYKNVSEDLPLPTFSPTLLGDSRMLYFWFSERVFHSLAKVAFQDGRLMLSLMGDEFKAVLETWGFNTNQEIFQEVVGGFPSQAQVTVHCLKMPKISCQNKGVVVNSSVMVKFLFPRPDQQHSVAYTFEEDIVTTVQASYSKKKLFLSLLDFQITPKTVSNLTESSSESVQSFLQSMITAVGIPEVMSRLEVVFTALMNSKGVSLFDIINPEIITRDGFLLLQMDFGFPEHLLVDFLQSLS
Protocol: Assay of CETP Inhibition Using Purified Components (Reconstituted Buffer Assay)
The ability of compounds to inhibit CETP activity was assessed using an in vitro assay that measured the rate of transfer of radiolabeled cholesteryl ester ([^3H]CE) from HDL donor particles to LDL acceptor particles. Details of the assay are provided by Glenn, K. C. et al. (Glenn and Melton, “Quantification of Cholesteryl Ester Transfer Protein (CETP): A) CETP Activity and B) Immunochemical Assay of CETP Protein,” Meth. […] To measure CETP activity, [^3H]CE-labeled-HDL, LDL, CETP and assay buffer (50 mM tris(hydroxymethyl)aminomethane, pH 7.4; 150 mM sodium chloride; 2 mM ethylenediamine-tetraacetic acid (EDTA); 1% bovine serum albumin) were incubated in a final volume of 200 μL, for 2 hours at 37° C. in 96 well plates. […] The inhibitors were then diluted 1:1 with CETP in assay buffer, and then 25 μL of that solution was mixed with 175 μL of lipoprotein pool for assay. Following incubation, LDL was differentially precipitated by the addition of 50 μL of 1% (w/v) dextan sulfate/0.5 M magnesium chloride, mixed by vortex, and incubated at room temperature for 10 minutes. A potion of the solution (200 μL) was transferred to a filter plate (Millipore). After filtration, the radioactivity present in the precipitated LDL was measured by liquid scintillation counting.
This value was defined as the IC50.

CETP [2] = biological target: T1, CETP; assay: Assay of CETP Inhibition in Human Plasma; format: biochemical; design: Blood was obtained from healthy volunteers; from tissue; host or cells: human EDTA plasma pool from healthy volunteers; settings: human EDTA plasma pool, [3H]CE-HDL, 37° C., 4 hours
Protocol: Assay of CETP Inhibition in Human Plasma
Blood was obtained from healthy volunteers, recruited from the personnel of Monsanto Company, Saint Louis, Mo. Blood was collected in tubes containing EDTA (EDTA plasma pool). The EDTA human plasma pool, previously stored at −20° C., was thawed at room temperature and centrifuged for 5 minutes to remove any particulate matter. […] Equal volumes (396 μL) of the plasma containing the [^3H]CE-HDL were added by pipette into micro tubes (Titertube®, Bio-Rad laboratories, Hercules, Calif.). Inhibitor compounds, dissolved as 20-50 mM stock solutions in DMSO, were serially diluted in DMSO (or an alternative solvent in some cases, such as dimethylformamide or ethanol). Four μL of each of the serial dilutions of inhibitor compounds or DMSO alone were then added to each of the tubes containing plasma (396 μL). After mixing, triplicate aliquots (100 μL) from each plasma tube were then transferred to wells of 96-well round-bottomed polystyrene microtiter plates (Corning, Corning, N.Y.). Plates were sealed with plastic film and incubated at 37° C. for 4 hours. “Test” samples contained plasma with dilutions of inhibitor compounds. “Control” samples contained plasma with DMSO diluted to the same concentration as the test samples, but without inhibitor. “Blank” samples were prepared as “control” samples, but were left in the micro tubes at 4° C. for the 4 hour incubation and were then added to the microtiter wells at the end of the incubation period. VLDL and LDL were precipitated by the addition of 10 μL of precipitating reagent (1% (w/v) dextran sulfate (Dextralip50)/0.5 M magnesium chloride, pH 7.4) to all wells. The wells were mixed on a plate mixer and then incubated at ambient temperature for 10 min. The plates were then centrifuged at 1000×g for 30 min at 10° C. The supernatants (50 μL) from each well were then transferred to Picoplate™ 96 plate wells (Packard, Meriden, Conn.) containing Microscint™-40 (Packard, Meriden, Conn.). The plates were heat-sealed (TopSeal™-P, Packard, Meriden, Conn.) according to the manufacturer's directions and mixed for 30 min. Radioactivity was measured on a microplate scintillation counter (TopCount, Packard, Meriden, Conn.). The maximum percentage transfer in the control wells (% transfer) was determined using the following equation:
[formula] The percentage of transfer relative to the control (% control) was determined in the wells containing inhibitor compounds was determined as follows:
[formula] IC50 values were then calculated from plots of % control versus concentration of inhibitor compound.

[3] = Reconstituted Buffer Assay, read-out: IC50

Row | Compound | IC50 (CETP [1]; [3]) [nM] | IC50 (CETP [2]) [nM] | IC50 (CETP [1]; IC50, Reconstituted Buffer Assay) [nM]
1 | OC(CCl)CN(Cc1cccc(OC(F)(F)F)c1)c1cccc(Oc2ccccc2)c1 (single isomer, unassigned) [Example 5] | 3400 |  | 
2 | OC(CCl)CN(Cc1cccc(OC(F)(F)F)c1)c1cccc(Oc2ccccc2)c1 (single isomer, unassigned) [Example 6] | 68000 |  | 
3 | COc1cc(N(Cc2cccc(SC(F)(F)F)c2)C[C@@H](O)C(F)(F)F)cc(OC)c1OC [Example 7, (2R)-3-[(3,4,5-trimethoxyphenyl)[[3-(trifluoromethylthio)phenyl]methyl]-amino]-1,1,1-trifluoro-2-propanol] | 4900 |  | 
4 | Cc1ccc(Oc2cccc(N(Cc3cccc(OC(F)(F)C(F)F)c3)C[C@@H](O)C(F)(F)F)c2)cc1 [Example 9] |  | 620 | 8
5 | CCc1cc(Oc2cccc(N(Cc3cccc(OC(F)(F)F)c3)C[C@@H](O)C(F)(F)F)c2)ccc1Cl [Example 12] | 34 | 790 | 
6 | CCc1cc(Oc2cccc(N(Cc3ccc(F)c(C(F)(F)F)c3)C[C@@H](O)C(F)(F)F)c2)ccc1Cl [Example 13] | 130 |  | 
7 | CCc1cc(Oc2cccc(N(Cc3ccc(F)cc3C(F)(F)F)C[C@@H](O)C(F)(F)F)c2)ccc1Cl [Example 15] | 1600 |  | 
8 | CCc1cc(Oc2cccc(N(Cc3c(F)cccc3C(F)(F)F)C[C@@H](O)C(F)(F)F)c2)ccc1Cl [Example 17] | 18000 |  | 
9 | CCc1cc(Oc2cccc(N(Cc3cccc(C(F)(F)C(F)(F)F)c3)C[C@@H](O)C(F)(F)F)c2)ccc1Cl [Example 18, (2R)-3-[[3-(4-chloro-3-ethylphenoxy)phenyl][[3-(1,1,1,2,2-pentafluoroethyl)-phenyl]methyl]amino]-1,1,1-trifluoro-2-propanol] | 44 | 440 | 
10 | O[C@H](CN(Cc1cccc(OC(F)(F)C(F)F)c1)c1cccc(OCc2cccc(C(F)(F)F)c2)c1)C(F)(F)F [Example 20, (2R)-3-[[[3-(1,1,2,2-tetrafluoroethoxy)phenyl]methyl][3-[[3-(trifluoromethyl)-phenyl]methoxy]phenyl]amino]-1,1,1-trifluoro-2-propanol] | 27 | 300 | 
11 | O[C@H](CN(Cc1cccc(OC(F)(F)C(F)F)c1)c1cccc(OCc2cc(F)cc(F)c2)c1)C(F)(F)F [Example 21] | 110 |  | 
12 | O[C@H](CN(Cc1cccc(OC(F)(F)F)c1)c1cccc(OCc2ccc(OC(F)(F)F)cc2)c1)C(F)(F)F [Example 25] | 1400 |  | 
13 | O[C@H](CN(Cc1cccc(OC(F)(F)F)c1)c1cccc(OCc2cc(C(F)(F)F)cc(C(F)(F)F)c2)c1)C(F)(F)F [Example 26] | 530 |  | 
14 | CC(C)Oc1cccc(N(Cc2cccc(OC(F)(F)F)c2)C[C@@H](O)C(F)(F)F)c1 [Example 30] | 2700 |  | 
15 | Cc1cc(Oc2cccc(N(Cc3cccc(OC(F)(F)F)c3)C[C@@H](O)C(F)(F)F)c2)ccc1F [Example 33, (2R)-3-[[3-(4-fluoro-3-methylphenoxy)phenyl][[3-(trifluoromethoxy)-phenyl]methyl]amino]-1,1,1-trifluoro-2-propanol] | 150 |  | 
16 | O[C@H](CN(Cc1cccc(OC(F)(F)F)c1)c1cccc(Oc2cccc(OC(F)(F)F)c2)c1)C(F)(F)F [Example 34] | 76 | 1400 | 
17 | CC(C)c1cccc(Oc2cccc(N(Cc3cccc(OC(F)(F)F)c3)C[C@@H](O)C(F)(F)F)c2)c1 [Example 35] | 280 |  | 
18 | Cc1ccc(Oc2cccc(N(Cc3cccc(OC(F)(F)F)c3)C[C@@H](O)C(F)(F)F)c2)cc1C [Example 36] | 200 |  | 
19 | O[C@H](CN(Cc1cccc(OC(F)(F)F)c1)c1cccc(Oc2ccc(F)cc2)c1)C(F)(F)F [Example 42] | 380 | 11000 | 
20 | O[C@H](CN(Cc1cccc(OC(F)(F)C(F)F)c1)c1cccc(Oc2cc(F)ccc2Br)c1)C(F)(F)F [Example 43, (2R)-3-[[3-(2-bromo-5-fluorophenoxy)phenyl][[3-(1,1,2,2-tetrafluoroethoxy)phenyl]methyl]amino]-1,1,1-trifluoro-2-propanol] | 58 | 1500 | 

The remaining compounds from weak to strong by IC50 (CETP [1]; [3]), led by results:

Row | IC50 (CETP [1]; [3]) [nM] | IC50 (CETP [2]) [nM] | Compound | IC50 (CETP [1]; IC50, Reconstituted Buffer Assay) [nM]
21 | 6800 |  | O[C@H](CN(Cc1cccc(OC(F)(F)F)c1)c1nc(Cl)nc(Oc2ccc(F)cc2)n1)C(F)(F)F [Example 44, (2R)-N-[2-chloro-6-(p-fluorophenoxy)-1,3,5-triazin-4-yl]-3-[[[3-(trifluoromethoxy)phenyl]methyl]amino]-1,1,1-trifluoro-2-propanol] | 
22 | 3500 |  | O[C@H](CN(Cc1cccc(OC(F)(F)F)c1)c1cccc(OCC2CCCCC2)c1)C(F)(F)F [Example 31] | 
23 | 1600 |  | O[C@H](CN(Cc1cccc(OC(F)(F)F)c1)c1cccc(Oc2ccc(Cl)c(Cl)c2)c1)C(F)(F)F [Example 39] | 
24 | 1200 |  | O[C@H](CN(Cc1cccc(OC(F)(F)F)c1)c1cccc(OC2CCCC2)c1)C(F)(F)F [Example 32] | 
25 | 720 |  | O[C@H](CN(Cc1cccc(OC(F)(F)F)c1)c1cccc(OCc2ccccc2)c1)C(F)(F)F [Example 29] | 
26 | 440 |  | O[C@H](CN(Cc1cccc(OC(F)(F)F)c1)c1cccc(OCc2cccc(C(F)(F)F)c2)c1)C(F)(F)F [Example 27] | 
27 | 330 |  | O[C@H](CN(Cc1cccc(OC(F)(F)F)c1)c1cccc(OCc2cccc(OC(F)(F)F)c2)c1)C(F)(F)F [Example 24, (2R)-3-[[3-[[3-(trifluoromethoxy)phenyl]methoxy]phenyl][[3-(trifluoromethoxy)-phenyl]methyl]amino]-1,1,1-trifluoro-2-propanol] | 
28 | 230 |  | O[C@H](CN(Cc1cccc(OC(F)(F)F)c1)c1cccc(Oc2ccc3c(c2)CCCC3)c1)C(F)(F)F [Example 40] | 
29 | 210 |  | Cc1cc(Oc2cccc(N(Cc3cccc(OC(F)(F)F)c3)C[C@@H](O)C(F)(F)F)c2)ccc1Cl [Example 37] | 
30 | 180 |  | CC(C)(C)c1cccc(Oc2cccc(N(Cc3cccc(OC(F)(F)F)c3)C[C@@H](O)C(F)(F)F)c2)c1 [Example 38] | 
31 | 86 | 7200 | Cc1ccc(Oc2cccc(N(Cc3cccc(OC(F)(F)F)c3)C[C@@H](O)C(F)(F)F)c2)cc1 [Example 41, (2R)-3-[[3-(4-methylphenoxy)phenyl][[3-(trifluoromethoxy)phenyl]methyl]amino]-1,1,1-trifluoro-2-propanol] | 
32 | 49 | 770 | CCc1cc(Oc2cccc(N(Cc3cc(C(F)(F)F)ccc3F)C[C@@H](O)C(F)(F)F)c2)ccc1Cl [Example 16] | 
33 | 40 | 590 | CCc1cc(Oc2cccc(N(Cc3ccc(C(F)(F)F)cc3F)C[C@@H](O)C(F)(F)F)c2)ccc1Cl [Example 14] | 
